Key:
Type in all cases: cell-based
hKv1.3 = hKv1.3 (Homo sapiens, UniProt P22001); test: cell-based; conditions: Kv1.3 (IWQ) IC50 (nM, Avg)
[1] = system: IL-2 secretion from T cells in human whole blood; conditions: read-out: WB (IL-2) IC50 (nM, Avg)
[2] = system: IFN-g secretion from T cells in human whole blood; conditions: read-out: WB (IFNg) IC50 (nM, Avg)

hKv1.3, sequence (P22001 whole entry): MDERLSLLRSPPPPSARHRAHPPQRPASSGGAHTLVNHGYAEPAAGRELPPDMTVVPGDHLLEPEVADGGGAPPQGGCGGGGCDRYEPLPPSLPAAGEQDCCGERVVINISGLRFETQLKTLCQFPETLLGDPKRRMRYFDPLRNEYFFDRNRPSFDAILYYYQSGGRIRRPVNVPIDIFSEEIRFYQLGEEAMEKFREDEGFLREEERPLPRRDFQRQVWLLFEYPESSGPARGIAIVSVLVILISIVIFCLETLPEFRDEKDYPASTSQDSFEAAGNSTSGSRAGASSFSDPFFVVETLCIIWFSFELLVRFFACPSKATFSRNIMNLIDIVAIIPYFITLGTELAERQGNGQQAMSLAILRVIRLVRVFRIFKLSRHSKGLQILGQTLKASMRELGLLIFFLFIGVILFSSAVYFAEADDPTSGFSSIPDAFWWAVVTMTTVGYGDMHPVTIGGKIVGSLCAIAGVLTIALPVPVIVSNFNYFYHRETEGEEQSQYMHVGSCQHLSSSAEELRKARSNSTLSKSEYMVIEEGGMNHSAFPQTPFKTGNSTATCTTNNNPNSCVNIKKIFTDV

| Structure (SMILES) | IC50 (hKv1.3) [nM] | IC50 [1] [nM] | IC50 [2] [nM] |
| --- | --- | --- | --- |
| CCCC[C@@H]1NC(=O)[C@H](CO)NC(=O)[C@H](Cc2c[nH]cn2)NC(=O)[C@H](CCCCN)NC(=O)[C@@H]2CSSC[C@@H]3NC(=O)[C@H]([C@@H](C)O)NC(=O)[C@H](CCCNC(=N)N)NC(=O)[C@H](CCCCN)NC(=O)[C@H](CSSC[C@H](NC(=O)[C@H](CCCNC(=N)N)NC(=O)[C@H](CO)NC(=O)[C@H](CCCCN)NC(=O)[C@@H]4CCCN4C(=O)[C@H]([C@@H](C)CC)NC(=O)[C@H]([C@@H](C)O)NC(=O)[C@H](CC(=O)O)NC(=O)[C@H]([C@@H](C)CC)NC(=O)[C@@H](NC(=O)[C@H](CO)NC(=O)[C@@H](N)CCCNC(=N)N)CSSC[C@@H](C(N)=O)NC(=O)[C@H]([C@@H](C)O)NC(=O)CNC3=O)C(=O)N[C@@H]([C@@H](C)O)C(=O)N[C@@H](C)C(=O)N[C@@H](Cc3ccccc3)C(=O)N[C@@H](CCCCN)C(=O)N2)NC(=O)[C@H](Cc2ccccc2)NC(=O)[C@H](Cc2cccc3ccccc23)NC(=O)[C@H](CC(C)C)NC(=O)[C@H](CCCNC(=N)N)NC(=O)[C@H](Cc2ccc(O)cc2)NC(=O)[C@H](CCCCN)NC1=O [[Lys16,29; 1-Nal26;Arg30;Nle21]ShK-amide] | 2.33 | 9.44 | 8.22 |
| CC[C@H](C)[C@@H]1NC(=O)[C@@H](NC(=O)[C@H](CO)NC(=O)[C@@H](N)CCCNC(=N)N)CSSC[C@@H](C(N)=O)NC(=O)[C@H]([C@@H](C)O)NC(=O)CNC(=O)[C@@H]2CSSC[C@@H]3NC(=O)[C@H](CCCCN)NC(=O)[C@H](Cc4ccccc4)NC(=O)[C@H](C)NC(=O)[C@H]([C@@H](C)O)NC(=O)[C@H](CSSC[C@H](NC(=O)[C@H](Cc4ccccc4)NC(=O)[C@H](Cc4cccc5ccccc45)NC(=O)[C@H](CC(C)C)NC(=O)[C@H](CCCNC(=N)N)NC(=O)[C@H](Cc4ccc(O)cc4)NC(=O)[C@H](CCCCN)NC(=O)[C@H](CCSC)NC(=O)[C@H](CO)NC(=O)[C@H](Cc4c[nH]cn4)NC(=O)[C@H](CCCCN)NC3=O)C(=O)N[C@@H](CCCCN)C(=O)N[C@@H](CCCCN)C(=O)N[C@@H]([C@@H](C)O)C(=O)N2)NC(=O)[C@H](CCCNC(=N)N)NC(=O)[C@H](CO)NC(=O)[C@H](CCCCN)NC(=O)[C@@H]2CCCN2C(=O)[C@H]([C@@H](C)CC)NC(=O)[C@H]([C@@H](C)O)NC(=O)[C@H](CC(=O)O)NC1=O [[Lys16,29; 1-Nal26]ShK-amide] | 0.341 | 0.808 | 1.98 |
| CC[C@H](C)[C@@H]1NC(=O)[C@@H](NC(=O)[C@H](CO)NC(=O)[C@@H](N)CCCNC(=N)N)CSSC[C@@H](C(N)=O)NC(=O)[C@H]([C@@H](C)O)NC(=O)CNC(=O)[C@@H]2CSSC[C@@H]3NC(=O)[C@H](CCCCN)NC(=O)[C@H](Cc4ccccc4)NC(=O)[C@H](C)NC(=O)[C@H]([C@@H](C)O)NC(=O)[C@H](CSSC[C@H](NC(=O)[C@H](Cc4ccccc4)NC(=O)[C@H](CO)NC(=O)[C@H](CC(C)C)NC(=O)[C@H](CCCNC(=N)N)NC(=O)[C@H](Cc4ccc(O)cc4)NC(=O)[C@H](CCCCN)NC(=O)[C@H](CCSC)NC(=O)[C@H](CO)NC(=O)[C@H](Cc4c[nH]cn4)NC(=O)[C@H](CCCCN)NC3=O)C(=O)N[C@@H](CCCCN)C(=O)N[C@@H](CCCNC(=N)N)C(=O)N[C@@H]([C@@H](C)O)C(=O)N2)NC(=O)[C@H](CCCNC(=N)N)NC(=O)[C@H](CO)NC(=O)[C@H](CCCCN)NC(=O)[C@@H]2CCCN2C(=O)[C@H]([C@@H](C)CC)NC(=O)[C@H]([C@@H](C)O)NC(=O)[C@H](CC(=O)O)NC1=O [[Lys16,29; Arg30]ShK-amide] | 0.131 | 0.339 | 0.281 |
